Measurements published in publication PMC6934184, “Selective DNA-PKcs inhibition extends the therapeutic index of localized radiotherapy and chemotherapy” (The Journal of Clinical Investigation, 2019).

Test system: PI3K
Experiment: IGF-1-stimulated phospho-AKT Ser473 in MCF7 cells, Western blot
Format: cell-based, Human
Settings: up to 10 μM, 50 ng/mL IGF-1, 30 min
Protocol: Exponentially growing MCF7 cells were exposed to a range of concentrations of NU5455 and NU7441 (0.03–10 μM) for 1 hour. To assess the ability of NU5455 and NU7441 to inhibit autophosphorylation of DNA-PKcs at Ser2056, cells were treated with 10 Gy irradiation and incubated for 30 minutes. Alternatively, to investigate the effects of NU5455 and NU7441 against PI3K-dependent phosphorylation of AKT at Ser473, cells were treated with 50 ng/mL insulin-like growth factor-1 (IGF-1; Invitrogen) for 30 minutes. Cell lysates were prepared for the detection of p–DNA-PKcs Ser2056 and total DNA-PKcs, or p–AKT Ser473 and total AKT, respectively, using Western blotting. […]
Protein lysates were quantified using the Pierce BCA Protein Assay (ThermoFisher). […]
Membranes were then washed in TBST and incubated with HRP-conjugated goat anti-mouse or anti-rabbit antibodies (P0447 and P0448 respectively, Dako) in 5% (w/v) milk/TBST at room temperature for 1-2 hours. Conjugates were detected using Clarity Western ECL Substrate (BioRad) and chemiluminescence imaged using the Fuji LAS-3000 Luminescent Image Analyzer System (Fujifilm). […]
Alternatively, basal pAKT Ser473 levels were subtracted from all other pAKT bands, and pAKT band intensity calculated relative to total AKT expression and given as a percentage relative to IGF-1 stimulated, DMSO-treated cells. […]

## CN(C(=O)CN1CCOCC1)c1ccc2sc3c(-c4cccc5c(=O)cc(N6CC7CCC(C6)O7)oc45)cccc3c2c1 [NU5455]
  inhibition of IGF-stimulated activation of AKT: did not inhibit
